Experimental data reported in the NIST ThermoML archive (doi:10.1021/je900903w).

Experiment: mn = molality of the nth substance listed, in mol/kg
Settings: 101 kPa, Liquid; for molar conductivity: Alternating current cell with electrodes

O=C[O-].[Na+] [sodium methanoate] + O
Settings	mass density, 298.15 K [kg/m3]	molar conductivity, 278.15 K [S·m2/mol]	molar conductivity, 283.15 K [S·m2/mol]	molar conductivity, 288.15 K [S·m2/mol]	molar conductivity, 293.15 K [S·m2/mol]	molar conductivity, 298.15 K [S·m2/mol]	molar conductivity, 303.15 K [S·m2/mol]	molar conductivity, 308.15 K [S·m2/mol]	molar conductivity, 313.15 K [S·m2/mol]
m1 = 0.0002873	–	0.00626	0.007191	0.008167	0.009185	0.01025	0.01134	0.01247	0.01358
m1 = 0.0003841	–	0.006215	0.007142	0.00813	0.009157	0.01022	0.01133	0.01246	0.01356
m1 = 0.0005247	–	0.006187	0.007111	0.008093	0.009118	0.01018	0.01128	0.01243	0.01351
m1 = 0.0005682	–	0.006178	0.007106	0.008083	0.009103	0.01017	0.01126	0.01238	0.01348
m1 = 0.0006608	–	0.006158	0.007081	0.008058	0.009078	0.01014	0.01124	0.01237	0.01347
m1 = 0.0008201	–	0.006134	0.007053	0.008027	0.009042	0.0101	0.0112	0.01234	0.01345
m1 = 0.0008629	–	0.006107	0.007049	0.008019	0.009031	0.01009	0.01118	0.01231	0.01344
m1 = 0.0009581	–	0.006095	0.007021	0.007988	0.009	0.01005	0.01115	0.01228	0.01341
m1 = 0.001119	–	0.006088	0.007002	0.007965	0.008975	0.01002	0.01111	0.01224	0.0134
m1 = 0.001188	–	0.006075	0.007	0.007964	0.008973	0.01002	0.01111	0.01224	0.01338
m1 = 0.001257	–	0.006054	0.006986	0.007948	0.008957	0.01001	0.0111	0.01223	0.01337
m1 = 0.001548	–	0.006043	0.006974	0.007934	0.008938	0.009988	0.01107	0.01219	0.01332
m1 = 0.001921	–	0.006045	0.006953	0.007912	0.008914	0.009962	0.01105	0.01216	0.01327
m1 = 0.002391	–	0.006033	0.006939	0.007896	0.008898	0.009943	0.01103	0.01213	0.01325
m1 = 0.003024	–	0.006025	0.006923	0.007876	0.008874	0.009917	0.011	0.0121	0.0132
m1 = 0.003744	–	0.006001	0.006901	0.007852	0.008827	0.009883	0.01096	0.01205	0.01315
m1 = 0.004567	–	0.00598	0.006877	0.007823	0.008811	0.009845	0.01092	0.01202	0.01313
m1 = 0.005591	997.307	0.005949	0.006841	0.007783	0.008767	0.009794	0.01086	0.01196	0.01306
m1 = 0.1222	1002.23	–	–	–	–	–	–	–	–

O=CO [formic acid] + O
Settings	mass density, 298.15 K [kg/m3]	molar conductivity, 278.15 K [S·m2/mol]	molar conductivity, 283.15 K [S·m2/mol]	molar conductivity, 288.15 K [S·m2/mol]	molar conductivity, 293.15 K [S·m2/mol]	molar conductivity, 298.15 K [S·m2/mol]	molar conductivity, 303.15 K [S·m2/mol]	molar conductivity, 308.15 K [S·m2/mol]	molar conductivity, 313.15 K [S·m2/mol]
m1 = 0.0002709	–	0.0149	0.0165	0.018	0.01947	0.02084	0.02214	0.0233	0.0242
m1 = 0.0005657	–	0.0113	0.0125	0.0138	0.0149	0.0161	0.0171	0.018	0.0189
m1 = 0.0008298	–	0.00971	0.0108	0.0119	0.0129	0.0139	0.0149	0.0157	0.0164
m1 = 0.001094	–	0.00867	0.00965	0.0106	0.0115	0.0124	0.0133	0.0141	0.0147
m1 = 0.001442	–	0.00773	0.00862	0.00948	0.0103	0.0111	0.0119	0.0126	0.0132
m1 = 0.001825	–	0.0069	0.00768	0.00845	0.0092	0.00991	0.0106	0.0112	0.0117
m1 = 0.002222	–	0.00636	0.00709	0.00781	0.0085	0.00917	0.00981	0.0104	0.0109
m1 = 0.002648	–	0.00593	0.00661	0.00727	0.0079	0.00851	0.00907	0.00959	0.0101
m1 = 0.003208	–	0.00548	0.00611	0.00673	0.00733	0.00791	0.00845	0.00894	0.00939
m1 = 0.003957	–	0.00505	0.00563	0.0062	0.00675	0.00729	0.00779	0.00824	0.00866
m1 = 0.004898	997.113	0.00463	0.00517	0.0057	0.00621	0.0067	0.00717	0.0076	0.00799
m1 = 0.1291	998.53	–	–	–	–	–	–	–	–
